In patent US7759345B2, “Antitumoral derivatives of ET-743” (priority 2001, dated 2010):

How the values were obtained:
Type in all cases: cell-based
[1] = system: HMEC1; test: Inhibition of cells growth by colorimetric assay (SRB), HMEC1; conditions: SRB, 48 hours exposure; for GI50 / LC50: Homo sapiens, HMEC-1, 48 h; for HMEC-1 TGI / GI50: HMEC-1; for GI50: read-out: HMEC-1 GI50; for LC50: read-out: HMEC-1 LC50, HMEC-1
Description: (§1) 2°.—Inhibition of Cells Growth by Colorimetric Assay.
(§2) A colorimetric type of assay, using sulforhodamine B (SRB) reaction has been adapted for a quantitative measurement of cell growth and viability [following the technique described by Philip Skehan, et al. (1990), New colorimetric cytotoxicity assay for anticancer drug screening, J. Natl. Cancer Inst., 82:1107-1112]
(§3) This form of the assay employs 96 well cell culture microplates of 9 mm diameter (Faircloth, 1988; Mosmann, 1983). Most of the cell lines are obtained from American Type Culture Collection (ATCC) derived from different human cancer types.
(§4) Cells are maintained in RPMI 1640 10% FBS, supplemented with 0.1 g/l penicillin and 0.1 g/l streptomycin sulfate and then incubated at 37° C., 5% CO2 and 98% humidity. For the experiments, cells were harvested from subconfluent cultures using trypsin and resuspended in fresh medium before plating.
(§5) Cells are seeded in 96 well microtiter plates, at 5×10^3 cells per well in aliquots of 195 μl medium, and they are allowed to attach to the plate surface by growing in drug free medium for 18 hours. Afterward, samples are added in aliquots of 5 μl in a ranging from 10 to 10^−8 μg/ml, dissolved in DMSO/EtOH/PBS (0.5:0.5:99). After 48 hours exposure, the antitumor effect are measured by the SRB methodology: cells are fixed by adding 50 μl of cold 50% (wt/vol) trichloroacetic acid (TCA) and incubating for 60 minutes at 4° C. Plates are washed with deionized water and dried. One hundred μl of SRB solution (0.4% wt/vol in 1% acetic acid) is added to each microtiter well and incubated for 10 minutes at room temperature. Unbound SRB is removed by washing with 1% acetic acid. Plates are air dried and bound stain is solubilized with Tris buffer. Optical densities are read on a automated spectrophotometric plate reader at a single wavelength of 490 nm.
(§6) The values for mean+/−SD of data from triplicate wells are calculated. Some parameters for cellular responses can be calculated: GI=growth inhibition, TGI=total growth inhibition (cytostatic effect) and LC=cell killing (cytotoxic effect).
(§7) Obtained results may predict the usefulness of a certain drug as a potential cancer treatment. For this technique, compounds which show GI50 values smaller than 10 μg/ml are selected to continue with further studies. GI50's data allow to predict that not only could a drug be cystostatic, but also it could have a potential in terms of tumor reduction.

[2] = system: PANC-1; test: Inhibition of cells growth by colorimetric assay (SRB), PANC-1; conditions: SRB, 48 hours exposure; for GI50 / LC50 (concentration for 50% net cell kill): Homo sapiens, PANC-1, 48 h; for GI50 / PANC-1 TGI: PANC-1; for GI50: read-out: PANC-1 GI50; for LC50 (concentration for 50% net cell kill): read-out: PANC-1 LC50, PANC-1
Description: as §1, §2, §3, §4, §5, §6, §7

[3] = system: SK-OV-3; test: Inhibition of cells growth by colorimetric assay (SRB), SK-OV-3; conditions: SRB, 48 hours exposure; for GI50 / LC50: Homo sapiens, SK-OV-3, 48 h; for GI50 / SK-OV3 TGI: SK-OV3; for GI50: read-out: SK-OV3 GI50; for LC50: read-out: SK-OV3 LC50, SK-OV3
Description: as §1, §2, §3, §4, §5, §6, §7

[4] = system: LoVo; test: Inhibition of cells growth by colorimetric assay (SRB), LoVo; conditions: SRB, 48 hours exposure; for GI50 / LC50 (concentration for 50% cell killing): Homo sapiens, LoVo, 48 h; for GI50 / LOVO TGI: LOVO; for GI50: read-out: LOVO GI50; for LC50 (concentration for 50% cell killing): read-out: LOVO LC50, LOVO
Description: as §1, §2, §3, §4, §5, §6, §7

[5] = system: SK-MEL-28; test: Inhibition of cells growth by colorimetric assay (SRB), SK-MEL-28; conditions: SRB, 48 hours exposure; for GI50 / CC50: Homo sapiens, SK-MEL-28, 48 h; for GI50 / MEL-28 TGI: MEL-28; for GI50: read-out: MEL-28 GI50; for CC50: read-out: MEL-28 LC50, MEL-28
Description: as §1, §2, §3, §4, §5, §6, §7

[6] = system: IGROV-ET; test: Inhibition of cells growth by colorimetric assay (SRB), IGROV-ET; conditions: SRB, 48 hours exposure; for GI50 / CC50: Homo sapiens, 48 h; for GI50 / IGROV-ET TGI: IGROV-ET; for GI50: read-out: IGROV-ET GI50; for CC50: read-out: IGROV-ET LC50, IGROV-ET
Description: as §1, §2, §3, §4, §5, §6, §7

[7] = system: DU-145; test: Inhibition of cells growth by colorimetric assay (SRB), DU-145; conditions: SRB, 48 hours exposure; for GI50 / CC50: Homo sapiens, DU-145, 48 h; for DU-145 TGI / GI50: DU-145; for GI50: read-out: DU-145 GI50; for CC50: read-out: DU-145 LC50, DU-145
Description: as §1, §2, §3, §4, §5, §6, §7

[8] = system: LNCaP; test: Inhibition of cells growth by colorimetric assay (SRB), LNCaP; conditions: SRB, 48 hours exposure; for GI50 / CC50: Homo sapiens, LNCaP, 48 h; for GI50: read-out: LNCAP GI50, LNCAP; for CC50: read-out: LNCAP LC50, LNCAP
Description: as §1, §2, §3, §4, §5, §6, §7

[9] = system: LoVo-Dox; test: Inhibition of cells growth by colorimetric assay (SRB), LoVo-Dox; conditions: SRB, 48 hours exposure; for GI50 / CC50: Homo sapiens, 48 h; for GI50 / LOVO-DOX TGI: LOVO-DOX; for GI50: read-out: LOVO-DOX GI50; for CC50: read-out: LOVO-DOX LC50, LOVO-DOX
Description: as §1, §2, §3, §4, §5, §6, §7

[10] = system: HT-29; test: Inhibition of cells growth by colorimetric assay (SRB), HT-29; conditions: SRB, 48 hours exposure; for GI50 / LC50 (concentration for 50% cell killing): Homo sapiens, HT-29, 48 h; for HT-29 TGI / GI50: HT-29; for GI50: read-out: HT-29 GI50; for LC50 (concentration for 50% cell killing): read-out: HT-29 LC50, HT-29
Procedure, shortened: (§8)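 48 h SRB cytotoxicity assay; compound range 10–10^−8 μg/ml; seeding 5×10^3 cells/well, 18 h pre-attachment; OD 490 nm; GI, TGI, LC from triplicate means ± SD.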

[11] = system: K-562; test: Inhibition of cells growth by colorimetric assay (SRB), K-562; conditions: SRB, 48 hours exposure; for GI50 / LC50 (50% cell killing): Homo sapiens, K562, 48 h; for GI50 / K-562 TGI: K-562; for GI50: read-out: K-562 GI50; for LC50 (50% cell killing): read-out: K-562 LC50, K-562
Description: as §1, §2, §3, §4, §5, §6, §7

[12] = system: A-549; test: Inhibition of cells growth by colorimetric assay (SRB), A-549; conditions: SRB, 48 hours exposure; for GI50 / LC50 (concentration for 50% cell killing): Homo sapiens, A549, 48 h; for A-549 TGI / GI50: A-549; for GI50: read-out: A-549 GI50; for LC50 (concentration for 50% cell killing): read-out: A-549 LC50, A-549
Procedure, shortened: as §8

[13] = system: IGROV-1; test: Inhibition of cells growth by colorimetric assay (SRB), IGROV-1; conditions: SRB, 48 hours exposure; for GI50 / CC50: Homo sapiens, IGROV-1, 48 h; for GI50 / IGROV TGI: IGROV; for GI50: read-out: IGROV GI50; for CC50: read-out: IGROV LC50, IGROV
Description: as §1, §2, §3, §4, §5, §6, §7

[14] = system: SK-BR-3; test: Inhibition of cells growth by colorimetric assay (SRB), SK-BR-3; conditions: SRB, 48 hours exposure; for GI50 / CC50: Homo sapiens, SK-BR-3, 48 h; for GI50 / SK-BR3 TGI: SK-BR3; for GI50: read-out: SK-BR3 GI50; for CC50: read-out: SK-BR3 LC50, SK-BR3
Description: as §1, §2, §3, §4, §5, §6, §7

## C=COC(=O)N1CCc2cc(O)c(OC)cc2[C@@]12CS[C@@H]1c3c(OC(C)=O)c(C)c4c(c3[C@H](COC2=O)N2C1[C@H]1c3c(cc(C)c(OC)c3O)C[C@@H]([C@@H]2O)N1C)OCO4 (stereo partly drawn) [Compound 95]
[1]
  HMEC-1 TGI: 2.80E-08
  GI50: 9.36 nM
  LC50: 75.6 nM
[2]
  GI50: 38.8 nM
  LC50 (concentration for 50% net cell kill): 1090 nM
  PANC-1 TGI: 1.08E-07
[3]
  GI50: 28.1 nM
  LC50: 368 nM
  SK-OV3 TGI: 6.59E-08
[4]
  GI50: 26.2 nM
  LC50 (concentration for 50% cell killing): 111 nM
  LOVO TGI: 5.40E-08
[5]
  GI50: 25.2 nM
  CC50: 83.2 nM
  MEL-28 TGI: 4.58E-08
[6]
  GI50: 50.5 nM
  CC50: 12000 nM
  IGROV-ET TGI: 1.16E-07
[7]
  DU-145 TGI: 8.92E-08
  GI50: 37.6 nM
  CC50: 1010 nM
[8]
  GI50: 17.7 nM
  CC50: 66 nM
  LNCAP TGI: 3.41E-08
[9]
  GI50: 240 nM
  CC50: 12000 nM
  LOVO-DOX TGI: 8.68E-07
[10]
  HT-29 TGI: 1.27E-07
  GI50: 40.4 nM
  LC50 (concentration for 50% cell killing): 12000 nM
[11]
  GI50: 15.3 nM
  LC50 (50% cell killing): 2220 nM
  K-562 TGI: 5.30E-08
[12]
  A-549 TGI: 5.55E-08
  GI50: 26.8 nM
  LC50 (concentration for 50% cell killing): 147 nM
[13]
  GI50: 28 nM
  CC50: 1090 nM
  IGROV TGI: 6.67E-08
[14]
  GI50: 29.8 nM
  CC50: 522 nM
  SK-BR3 TGI: 7.62E-08

## C=COC(=O)Oc1cc2c(cc1OC)[C@@]1(CS[C@@H]3c4c(OC(C)=O)c(C)c5c(c4[C@H](COC1=O)N1C3[C@H]3c4c(cc(C)c(OC)c4O)C[C@@H]([C@@H]1O)N3C)OCO5)N(C(=O)OC=C)CC2 (stereo partly drawn) [Compound 100]
[1]
  HMEC-1 TGI: 5.14E-08
  GI50: 27.5 nM
  LC50: 96.1 nM
[2]
  GI50: 41.4 nM
  LC50 (concentration for 50% net cell kill): 8320 nM
  PANC-1 TGI: 1.14E-08
[3]
  GI50: 28.2 nM
  LC50: 111 nM
  SK-OV3 TGI: 5.74E-08
[4]
  GI50: 24.4 nM
  LC50 (concentration for 50% cell killing): 82.3 nM
  LOVO TGI: 4.48E-08
[5]
  GI50: 26.5 nM
  CC50: 95.9 nM
  MEL-28 TGI: 5.04E-08
[6]
  GI50: 63.2 nM
  CC50: 11100 nM
  IGROV-ET TGI: 7.41E-07
[7]
  DU-145 TGI: 1.03E-07
  GI50: 43.1 nM
  CC50: 8320 nM
[8]
  GI50: 21.5 nM
  CC50: 66.5 nM
  LNCAP TGI: 3.79E-08
[9]
  GI50: 392 nM
  CC50: 11100 nM
  LOVO-DOX TGI: 2.73E-06
[10]
  HT-29 TGI: 8.07E-08
  GI50: 35 nM
  LC50 (concentration for 50% cell killing): 11100 nM
[11]
  GI50: 36.4 nM
  LC50 (50% cell killing): 106 nM
  K-562 TGI: 6.20E-08
[12]
  A-549 TGI: 6.20E-08
  GI50: 29.8 nM
  LC50 (concentration for 50% cell killing): 112 nM
[13]
  GI50: 35.1 nM
  CC50: 915 nM
  IGROV TGI: 6.54E-08
[14]
  GI50: 40.5 nM
  CC50: 1720 nM
  SK-BR3 TGI: 9.87E-08
